Measurements from ChEMBL document CHEMBL3044617, “N-[2(3-Carboxyl-9-benzyl-carboline-1-yl)ethyl-1-yl]-amino acids: correlation of spectral property with in vivo anti-tumor activity” (2012).
The source made the active and inactive calls. The calls are words filed in the database; no cut-off is given here.

Tests used:
[1] = tested on: CCRF S-180; assay: Antitumor activity against Mus musculus (mouse) S180 cells xenografted in ICR Mus musculus (mouse) assessed as tumor growth inhibition at 89 umol/kg, ip qd for 7 days measured after 24 hr of last dose relative to control; type: functional; settings: CCRF S-180, ip, read-out: TGI
[2] = tested on: DNA; assay: Binding affinity to Bos taurus (calf) thymus DNA assessed as positive band intensity at 100 uM after 24 hr by CD spectra analysis (reference value: 21429 +/- 276 deg cm2/dmol'-1); type: nucleic-acid assay
[3] = tested on: DNA; assay: Binding affinity to Bos taurus (calf) thymus DNA assessed as hypsochromic shift at 20 uM by UV spectra analysis; type: nucleic-acid assay
[4] = tested on: DNA; assay: Binding affinity to Bos taurus (calf) thymus DNA assessed as hypochromic effect at 20 uM by UV spectra analysis; type: nucleic-acid assay
[5] = tested on: DNA; assay: Binding affinity to Bos taurus (calf) thymus DNA assessed as negative band intensity at 100 uM after 24 hr by CD spectra analysis (reference value: -15209 +/- 245 deg cm2/dmol'-1); type: nucleic-acid assay
[6] = tested on: DNA; assay: Binding affinity to Bos taurus (calf) thymus DNA assessed as change melting temperature at 20 uM; type: nucleic-acid assay
[7] = tested on: DNA; assay: Binding affinity to Bos taurus (calf) thymus DNA assessed as melting temperature at 20 uM (reference value: 60.3 degC); type: nucleic-acid assay
[8] = tested on: DNA; assay: Binding affinity to Bos taurus (calf) thymus DNA assessed as change in DNA viscosity; type: nucleic-acid assay
[9] = tested on: DNA; assay: Binding affinity to Bos taurus (calf) thymus DNA assessed as bathochromic shift at 0.5 uM by fluorescence quenching assay; type: nucleic-acid assay
[10] = tested on: DNA; assay: Binding affinity to Bos taurus (calf) thymus DNA assessed as decrease in fluorescence intensity at 0.5 uM by fluorescence quenching assay; type: nucleic-acid assay; parameters: scale not given: the % may be the effect or the level left

Structure (SMILES) | inhibition in vivo at 89 µmol/kg [1] [%] | molecular ellipticity [2] [deg.cm2/dmol] | Activity [3] [nm] | Activity [4] [%] | molecular ellipticity [5] [deg.cm2/dmol] | ΔTm [6] [°C] | Tm [7] [°C] | Activity [8] | Activity [9] [nm] | Activity [10] [%]
Nc1ccn([C@@H]2O[C@H](CO)[C@@H](O)[C@@H]2O)c(=O)n1 [CYTARABINE] | 54.8 | – | – | – | – | – | – | – | – | –
O=C(O)C[C@H](NCCc1nc(C(=O)O)cc2c3ccccc3n(Cc3ccccc3)c12)C(=O)O | 34.7 | 2750 | 3.4 | 32 | -36300 | 12.9 | 73.2 | Active | 8.2 | 63.9
O=C(O)c1cc2c3ccccc3n(Cc3ccccc3)c2c(CCN[C@@H](CO)C(=O)O)n1 | 35.3 | 10100 | 4.8 | 29.6 | -23700 | 10.8 | 71.1 | Active | 4.6 | 42.4
O=C(O)c1cc2c3ccccc3n(Cc3ccccc3)c2c(CCN[C@@H](Cc2ccc(O)cc2)C(=O)O)n1 | 48.6 | 28900 | 4.8 | 30.5 | -1080 | 11.9 | 72.2 | Active | 4.4 | 58.7
C[C@@H](O)[C@H](NCCc1nc(C(=O)O)cc2c3ccccc3n(Cc3ccccc3)c12)C(=O)O | -29.1 | 17400 | 0 | 0 | -5800 | 4.9 | 65.4 | Active | 2.2 | 32.6
